Reference: US20200008426A1, “ACTIVE COMPOUND COMBINATIONS” (BAYER AKTIENGESELLSCHAFT, priority 2017, published 2020)
“And” between values parts separate entries of the source, which are not always exact repeats. Equal entries are not always repeated.

Legend:
Alternaria alternata = assay: In vitro-Test with Alternaria alternata; assay type: cell-based
Septoria tritici [1] = assay: In vitro-Test with Septoria tritici; assay type: cell-based; settings: compound alone
Septoria tritici [2] = assay: In vivo preventive Septoria tritici test (wheat); settings: 21 days after inoculation
Description: After the spray coating has been dried, the plants are sprayed with a spore suspension of Septoria tritici.
The test is evaluated 21 days after the inoculation.

Venturia inaequalis = assay: In vivo preventive test on Venturia (apples); settings: 10 days after inoculation
Description: The test is evaluated 10 days after the inoculation.

Sphaerotheca fuliginea = assay: In vivo preventive test on Sphaerotheca (cucumbers); settings: Table D1, 7 days after inoculation
Ustilago avenae = assay: In vitro-Test with Ustilago avenae; assay type: cell-based; settings: compound alone
Pyrenophora teres = assay: In vitro-Test with Pyrenophora teres; assay type: cell-based
Fusarium culmorum = assay: In vitro-Test with Fusarium culmorum; assay type: cell-based; settings: 0.2 ppm
Puccinia triticina = assay: In vivo preventive Puccinia triticina test (wheat); settings: 8 days after inoculation
Description: After the spray coating has been dried, the plants are sprayed with a spore suspension of Puccinia triticina.
(§1) The test is evaluated 8 days after the inoculation.

[3] = system: fish (Danio rerio) embryos; assay: In vivo ecotoxicity screening test on fish (Danio rerio); settings: active compound alone; fish embryos, 96 h, 28.5° C.
Description: with ECxi the Effect Concentration (EC) of each chemical i (in ppm) causing x % effect on the ecotoxicity test endpoint.
For each compound combination, the predicted ECx value is calculated. It is then compared to an experimentally measured value. The ratio of predicted versus measured effect for the combination (thereafter called the Model Deviation Ratio or MDR) is then calculated.
The environmental effect of the compound combinations was measured experimentally in laboratory ecotoxicity screening studies with fish (Danio rerio). […] Mortality was recorded after 96 h for each tested concentration and a reference control. […] Then, the MDR values were calculated.
• Solvent: 0.5% by weight dimethyl sulfoxide
This concentrate is then diluted with water to the desired a.i. concentration, leading to a maximal solvent concentration of 0.5% by weight. The compounds alone and the combinations were tested for five increasing concentrations between 0.01 and 1000 ppm a.i., (e.g. 0.1, 1.0, 10 and 100 ppm a.i). For the combinations, compounds A and B were mixed in a weight ratio of 5:1 to 1:5 and five increasing concentrations were tested for each ratio.

[4] = system: Blumeria graminis f.sp. hordei; assay: In vivo preventive Blumeria test (barley); settings: 7 days after inoculation
Botrytis cinerea = assay: In vitro-Test with Botrytis cinerea; assay type: cell-based
Pyricularia oryzae = assay type: cell-based; settings: 5 ppm
Leptosphaeria nodorum = assay: In vivo preventive Leptosphaeria nodorum test (wheat); settings: Table G1, 8 days after inoculation
Description: After the spray coating has been dried, the plants are sprayed with a spore suspension of Leptosphaeria nodorum.
as §1

Phakopsora pachyrhizi = assay: In vivo preventive test on Phakopsora (soybeans); settings: Table C3, 7 days after inoculation
Rhizoctonia solani = assay: In vitro-Test with Rhizoctonia solani; assay type: cell-based; settings: compound alone

CC(C)(C)[C@@H](O)[C@@H](Cc1ccc(Cl)cc1)n1cncn1 (racemic) [Example 1.015, paclobutrazol]
Efficacy % (Alternaria alternata; 1 ppm): 0% | Efficacy % (Septoria tritici [1]; 1 ppm): 13%

OC(Cc1ccccc1Cl)(Cn1nc[nH]c1=S)C1(Cl)CC1 (centres unmarked) [Example 1.018, prothioconazole]
Efficacy in % found (Septoria tritici [2]; 25 ppm a.i.): 0% | Efficacy in % found (Septoria tritici [2]; 50 ppm a.i.): 14% | Efficacy in % found (Septoria tritici [2]; 100 ppm a.i.): 43% | Efficacy in % found (Venturia inaequalis; Table E1, 2.5 ppm a.i.): 0% | Efficacy in % found (Venturia inaequalis; Table E1, 5 ppm a.i.): 30% | Efficacy in % found (Venturia inaequalis; Table E1, 10 ppm a.i.): 61% | Efficacy in % found (Sphaerotheca fuliginea; 2.5 ppm a.i.): 71% | Efficacy in % found (Sphaerotheca fuliginea; 5 ppm a.i.): 96% | Efficacy in % found (Sphaerotheca fuliginea; 10 ppm a.i.): 100% | Efficacy % (Ustilago avenae; 1 ppm): 85% | Efficacy % (Ustilago avenae; 5 ppm): 100% | Efficacy % (Alternaria alternata; 0.04 ppm): 0% | Efficacy % (Alternaria alternata; 0.2 ppm): 91% | Efficacy % (Pyrenophora teres; 0.2 ppm): 22% | Efficacy % (Fusarium culmorum): 99% | Efficacy in % found (Puccinia triticina; 25 ppm a.i.): 0% | Efficacy in % found (Puccinia triticina; 50 ppm a.i.): 0% | Efficacy in % found (Puccinia triticina; 100 ppm a.i.): 0% | Efficacy in % found (Puccinia triticina; Table H1, 25 ppm a.i.): 0% | Efficacy in % found (Puccinia triticina; Table H1, 50 ppm a.i.): 0% | Efficacy in % found (Puccinia triticina; Table H1, 100 ppm a.i.): 0% | Ecotoxicity LC50-96 h found [3]: 3.16 ppm a.i.

CCCN(CC)CC1COC2(CCC(C(C)(C)C)CC2)O1 (centres unmarked) [Example 1.020, spiroxamine]
pest or weed control at 62.5 ppm (Septoria tritici [2]; Zymoseptoria tritici, 504 h, 62.5 ppm a.i., read-out: Efficacy in % found): 0% | pest or weed control at 125 ppm (Septoria tritici [2]; Zymoseptoria tritici, 504 h, 125 ppm a.i., read-out: Efficacy in % found): 14% | pest or weed control at 250 ppm (Septoria tritici [2]; Zymoseptoria tritici, 504 h, 250 ppm a.i., read-out: Efficacy in % found): 57% | Efficacy in % found (Venturia inaequalis; Table E1, 25 ppm a.i.): 0% | Efficacy in % found (Venturia inaequalis; Table E1, 50 ppm a.i.): 0% | Efficacy in % found (Venturia inaequalis; Table E1, 100 ppm a.i.): 14% | Efficacy in % found (Sphaerotheca fuliginea; 25 ppm a.i.): 31% | Efficacy in % found (Sphaerotheca fuliginea; 50 ppm a.i.): 37% | Efficacy in % found (Sphaerotheca fuliginea; 100 ppm a.i.): 49% | Efficacy in % found ([4]; Table F2, 62.5 ppm a.i.): 33% | Efficacy in % found ([4]; Table F2, 125 ppm a.i.): 89% | Efficacy in % found ([4]; Table F2, 250 ppm a.i.): 100% | Efficacy % (Ustilago avenae; 20 ppm): 12% | Efficacy % (Ustilago avenae; 100 ppm): 100% | Efficacy % (Botrytis cinerea; 4 ppm): 7% | Efficacy % (Botrytis cinerea; 20 ppm): 9% | Efficacy % (Septoria tritici [1]; 0.8 ppm): 25% | Efficacy % (Septoria tritici [1]; 4 ppm): 34% | pest or weed control at 62.5 ppm (Puccinia triticina; Puccinia triticina, 192 h, 62.5 ppm a.i., read-out: Efficacy in % found): 11% | pest or weed control at 125 ppm (Puccinia triticina; Puccinia triticina, 192 h, 125 ppm a.i., read-out: Efficacy in % found): 33% | pest or weed control at 250 ppm (Puccinia triticina; Puccinia triticina, 192 h, 250 ppm a.i., read-out: Efficacy in % found): 33% | Ecotoxicity LC50-96 h found [3]: 14.81 ppm a.i.

Cn1cc(C(=O)Nc2ccc(F)cc2-c2ccc(Cl)c(Cl)c2)c(C(F)F)n1 [Example 2.002, bixafen]
Efficacy % (Alternaria alternata; 0.04 ppm): 55% | Efficacy % (Alternaria alternata; 0.2 ppm): 84% and 57% | Efficacy % (Alternaria alternata; 1 ppm): 88% | Efficacy % (Botrytis cinerea; 1 ppm): 63% | Efficacy % (Botrytis cinerea; 5 ppm): 91% | Efficacy % (Pyrenophora teres; 0.2 ppm): 46% | Efficacy % (Pyrenophora teres; 1 ppm): 60% | Efficacy % (Pyrenophora teres; 5 ppm): 72% | Efficacy in % found (Puccinia triticina; Table H1, 25 ppm a.i.): 22% | Efficacy in % found (Puccinia triticina; Table H1, 50 ppm a.i.): 33% | Efficacy in % found (Puccinia triticina; Table H1, 100 ppm a.i.): 67% | Ecotoxicity LC50-96 h found [3]: 0.154 ppm a.i.

O=C(NCCc1ncc(C(F)(F)F)cc1Cl)c1ccccc1C(F)(F)F [Example 2.005, fluopyram]
Efficacy in % found (Septoria tritici [2]; 30 ppm a.i.): 38% and 29% | Efficacy in % found (Septoria tritici [2]; 60 ppm a.i.): 88% and 71% | Efficacy in % found ([4]; Table F1, 15 ppm a.i.): 0% | Efficacy in % found ([4]; Table F1, 30 ppm a.i.): 0% | Efficacy in % found ([4]; Table F1, 60 ppm a.i.): 29% | Efficacy % (Ustilago avenae; 5 ppm): 0% | Efficacy % (Septoria tritici [1]; 0.04 ppm): 43% and 22% | Efficacy % (Septoria tritici [1]; 0.2 ppm): 93% and 67% | Efficacy in % found (Puccinia triticina; 15 ppm a.i.): 0% | Efficacy in % found (Puccinia triticina; 30 ppm a.i.): 0% | Efficacy in % found (Puccinia triticina; 60 ppm a.i.): 0% | Efficacy in % found (Puccinia triticina; Table H1, 15 ppm a.i.): 0% | Efficacy in % found (Puccinia triticina; Table H1, 30 ppm a.i.): 0% | Efficacy in % found (Puccinia triticina; Table H1, 60 ppm a.i.): 33% | Ecotoxicity LC50-96 h found [3]: >200 ppm a.i.

CON=C(C(=O)OC)c1ccccc1CON=C(C)c1cccc(C(F)(F)F)c1 [Example 3.020, trifloxystrobin]
pest or weed control at 2.5 ppm (Septoria tritici [2]; Zymoseptoria tritici, 504 h, 2.5 ppm a.i., read-out: Efficacy in % found): 29% | pest or weed control at 5 ppm (Septoria tritici [2]; Zymoseptoria tritici, 504 h, 5 ppm a.i., read-out: Efficacy in % found): 29% | pest or weed control at 10 ppm (Septoria tritici [2]; Zymoseptoria tritici, 504 h, 10 ppm a.i., read-out: Efficacy in % found): 29% | Efficacy % (Pyricularia oryzae): 98% | Efficacy % (Septoria tritici [1]; 5 ppm): 90% | Efficacy % (Pyrenophora teres; 5 ppm): 6% | pest or weed control at 2.5 ppm (Puccinia triticina; Puccinia triticina, 192 h, Table H1, 2.5 ppm a.i., read-out: Efficacy in % found): 0% | pest or weed control at 5 ppm (Puccinia triticina; Puccinia triticina, 192 h, Table H1, 5 ppm a.i., read-out: Efficacy in % found): 0% | pest or weed control at 10 ppm (Puccinia triticina; Puccinia triticina, 192 h, Table H1, 10 ppm a.i., read-out: Efficacy in % found): 11% | Ecotoxicity LC50-96 h found [3]: 0.24 ppm a.i.

O=C(Nc1ccccc1)N(Cc1ccc(Cl)cc1)C1CCCC1 [Example 4.005, pencycuron]
Efficacy in % found (Septoria tritici [2]; 62.5 ppm a.i.): 0% | Efficacy in % found (Septoria tritici [2]; 125 ppm a.i.): 0% | Efficacy in % found (Septoria tritici [2]; 250 ppm a.i.): 0% | Efficacy in % found (Venturia inaequalis; Table E1, 25 ppm a.i.): 0% | Efficacy in % found (Venturia inaequalis; Table E1, 50 ppm a.i.): 0% | Efficacy in % found (Venturia inaequalis; Table E1, 100 ppm a.i.): 4% | Efficacy in % found (Leptosphaeria nodorum; 62.5 ppm a.i.): 14% | Efficacy in % found (Leptosphaeria nodorum; 125 ppm a.i.): 14% | Efficacy in % found (Leptosphaeria nodorum; 250 ppm a.i.): 29% | Efficacy % (Septoria tritici [1]; 20 ppm): 8% | Efficacy % (Septoria tritici [1]; 100 ppm): 0% | Efficacy % (Pyrenophora teres; 20 ppm): 17% | Efficacy % (Pyrenophora teres; 100 ppm): 5% | Efficacy in % found (Puccinia triticina; 62.5 ppm a.i.): 0% | Ecotoxicity LC50-96 h found [3]: >200 ppm a.i.

CCCOc1nc2ccc(I)cc2c(=O)n1CCC [Example 13.004, proquinazid]
Efficacy in % found (Septoria tritici [2]; 250 ppm a.i.): 0% | Efficacy in % found (Septoria tritici [2]; 500 ppm a.i.): 0% | Efficacy in % found (Septoria tritici [2]; 1000 ppm a.i.): 0% | Efficacy in % found (Venturia inaequalis; Table E1, 12.5 ppm a.i.): 0% | Efficacy in % found (Venturia inaequalis; Table E1, 25 ppm a.i.): 0% | Efficacy in % found (Venturia inaequalis; Table E1, 50 ppm a.i.): 0% | Efficacy % (Alternaria alternata; 0.8 ppm): 0% | Efficacy % (Alternaria alternata; 4 ppm): 0% | Efficacy in % found (Leptosphaeria nodorum; 250 ppm a.i.): 0% | Efficacy in % found (Leptosphaeria nodorum; 500 ppm a.i.): 14% | Efficacy in % found (Leptosphaeria nodorum; 1000 ppm a.i.): 14% | Efficacy % (Septoria tritici [1]; 20 ppm): 55% | Efficacy % (Septoria tritici [1]; 100 ppm): 28% | Ecotoxicity LC50-96 h found [3]: 9.89 ppm a.i.

mancozeb [Example 5.013]
Efficacy in % found (Septoria tritici [2]; 250 ppm a.i.): 29% | Efficacy in % found (Septoria tritici [2]; 500 ppm a.i.): 29% | Efficacy in % found (Septoria tritici [2]; 1000 ppm a.i.): 29% | Efficacy in % found (Venturia inaequalis; Table E2, 12.5 ppm a.i.): 0% | Efficacy in % found (Venturia inaequalis; Table E2, 25 ppm a.i.): 18% | Efficacy in % found (Venturia inaequalis; Table E2, 50 ppm a.i.): 95% | Efficacy in % found (Leptosphaeria nodorum; 250 ppm a.i.): 14% | Efficacy in % found (Leptosphaeria nodorum; 500 ppm a.i.): 14% | Efficacy in % found (Leptosphaeria nodorum; 1000 ppm a.i.): 14% | Efficacy in % found (Phakopsora pachyrhizi; 12.5 ppm a.i.): 23% | Efficacy in % found (Phakopsora pachyrhizi; 25 ppm a.i.): 45% | Efficacy in % found (Phakopsora pachyrhizi; 50 ppm a.i.): 90% | Efficacy % (Rhizoctonia solani; 4 ppm): 57% | Efficacy % (Rhizoctonia solani; 20 ppm): 99% | Efficacy % (Pyrenophora teres; 20 ppm): 81% | Efficacy % (Pyrenophora teres; 100 ppm): 83%
